What all share (format): in vitro ADME
Data set [1] in a line: Kinetic analysis of 5′-acyloxy/alkoxycarbonyl prodrug hydrolysis in human liver S9 (HPLC-UV). As to conditions: for half-lives in human liver S9: FIG. 7; for Km: both sexes, human, pooled human liver S9, pH 7.4, 17: 5′-acetoxy hydrolysis, 1.0 mg/mL S9, 5: 5′-pentoxycarbonyl hydrolysis, 3.0 mg/mL S9, 37° C.; for Km / Intrinsic Clearance / Vmax: conversion to compound 13; for Intrinsic Clearance / Vmax: 17: 1.0 mg/mL S9, 5: 3.0 mg/mL S9. On the procedure: A reaction mixture containing Tris buffer (30 mM, pH 7.4) and mixed pooled gender liver S9 (1 mg/mL, 3.0 mg/mL, or 4.0 mg/mL) are pre-incubated at 37° C. for 5 minutes. To the reaction mixtures is added compound 17 which initiates the hydrolysis reaction (concentrations of compound 17 ranging from 200 μM to 10 mM). […] The supernatant was diluted into Tris buffer (30 mM, pH 7.4) to yield samples with concentrations appropriate for analysis. The samples were analyzed by HPLC with UV detection using the following method (0% to 100% acetonitrile in Et3NHOAc (50 mM, pH 8) gradient) over 10 minutes at a flow rate of 3 mL min^−1, held at 100% acetonitrile for 3 minutes, ramped down to 5% acetonitrile over 0.2 minutes and then held for 2.8 minutes.
Kinetic analysis data for the conversion of compound 17 to compound 13 via 5′-acetoxy hydrolysis is illustrated in FIG. 5. The hydrolysis was performed under conditions in which the pentyl carbamate group of compound 17 is stable in 1.0 mg/mL pooled mixed gender human liver S9. It was observed that the intrinsic clearance for the 5′-acetoxy hydrolysis is greater than that for the carbamate group hydrolysis.
Kinetic analysis data for the conversion of compound 5 to compound 13 via 5′-pentoxycarbonyl hydrolysis is illustrated in FIG. 6 (concentrations of compound 5 ranging from 200 μM to 10 mM). The hydrolysis was performed under conditions in which the pentyl carbamate group is stable in 3.0 mg/mL pooled mixed gender human liver S9. It was observed that the intrinsic clearance for 5′-pentoxycarbonyl hydrolysis is greater than that for carbamate group hydrolysis but reduced when compared to the intrinsic clearance of the 5′-acetoxy hydrolysis. Kinetic analysis data for the conversion of compound 17 to compound 13 via 5′-acetoxy hydrolysis and the conversion of compound 5 to compound 13 via 5′-pentoxycarbonyl hydrolysis is presented in Table 1 below.
Kinetic analysis data for compounds 20 and 21 in human liver S9 was generated in accordance with the general procedure described above.

A short description of data set [2]: Prodrug hydrolysis in rat plasma. The following applies: 37° C., depletion of starting material, read-out: Rat Plasma t1/2. As for the experimental part: (§1) Reaction mixtures containing either mouse liver S9 (20.8 mg/mL), mouse plasma, rat liver S9 (1 mg/mL) and phosphate buffer (100 mM, pH 7.4), rat plasma, human liver S9 (1.0 mg/mL) and phosphate buffer (100 mM, pH 7.4) or human plasma were pre-incubated at 37° C. for 5 minutes. Reactions were then initiated by addition of compounds 4, 8 or 16 (1 mM in mouse, 0.5 mM in rat and human). […] The samples were analyzed by HPLC with UV detection and the resulting hydrolysis data can be seen in FIG. 12.
(§2) In all cases, the half-lives for compound 4 are shorter than that of compound 8. […] In all cases, the half-life indicates the depletion of starting material compounds. […] In human compartments, only carbonate cleavage is observed.

The nature of data set [3]: Prodrug hydrolysis in rat liver S9. As to conditions: pH 7.4, rat liver S9 1 mg/mL, 37° C., depletion of starting material, read-out: Rat Liver t1/2. On the procedure:
as §1, §2

The nature of data set [4]: Prodrug hydrolysis in human plasma. As to conditions: 37° C., depletion of starting material, read-out: Human Plasma t1/2. On the procedure:
as §1, §2

The nature of data set [5]: Prodrug hydrolysis in human liver S9. As to conditions: pH 7.4, human liver S9 1.0 mg/mL, 37° C., depletion of starting material, read-out: Human Liver t1/2. As for the experimental part: as §1, §2
A short description of data set [6]: Half-life measurements in human plasma (HPLC-UV). As to conditions: human, plasma, 37° C., hydrolysis through two potential pathways, read-out: hydrolysis half-life in human plasma (converted). As for the experimental part:
To evaluate the hydrolysis rates of emtricitabine compounds 9-16, HPLC coupled with UV detection was used with the following method (0% to 100% acetonitrile in Et3NHOAc (50 mM, pH 8) gradient) over 10 minutes at a flow rate of 3 mL min^−1, held at 100% acetonitrile for 3 minutes, ramped down to 5% acetonitrile over 0.2 minutes and then held for 2.8 minutes. Male human plasma (Bioreclamation) or female human skeletal muscle S9 (7.96 mg/mL, Bioreclamation) was pre-incubated at 37° C. for 5 minutes. Compounds 9-16 (1 mM) were added and the reaction was incubated at 37° C. […] The supernatant was diluted 10 fold into Tris buffer (30 mM, pH 7.4) and injected onto the HPLC for analysis.
To evaluate the hydrolysis rates of emtricitabine trimethyl lock prodrugs, HPLC coupled with UV detection was used with the following method (0% to 100% acetonitrile in Et3NHOAc (50 mM, pH 8) gradient) over 10 minutes at a flow rate of 3 mL min^−1, held at 100% acetonitrile for 3 minutes, ramped down to 5% acetonitrile over 0.2 minutes and then held for 2.8 minutes. Human plasma (Bioreclamation) or human skeletal muscle S9 (7.96 mg/mL, Bioreclamation) was pre-incubated at 37° C. for 5 minutes. Emtricitabine trimethyl lock compound 25 (1 mM) was added and the reaction was incubated at 37° C. […] The supernatant was diluted in Tris buffer (100 mM, pH 7.4) and injected onto the HPLC for analysis. […]

What is called Km is the concentration of substrate that gives half-maximal velocity. For orientation: Vmax means the top rate of the reaction or transport when substrate is in excess.

`CCCCCCCCOC(=O)Nc1nc(=O)n([C@@H]2CS[C@H](COC(=O)C(C)C)O2)cc1F` [Compound 21, ((2R,5S)-5-(5-fluoro-4-(((octyloxy)carbonyl)amino)-2-oxopyrimidin-1 (2H)-yl)-1,3-oxathiolan-2-yl)methyl isobutyrate]: the “half-lives in human liver S9” value in data set [1] is “comparable half-lives”.
As for `CCCCCOC(=O)Nc1nc(=O)n([C@@H]2CS[C@H](COC(C)=O)O2)cc1F` [Compound 17, ((2R,5S)-5-(5-fluoro-2-oxo-4-(((pentyloxy)carbonyl)amino)pyrimidin-1 (2H)-yl)-1,3-oxathiolan-2-yl)methyl acetate], in data set [1], the Km was determined as 1310 µM, the “Intrinsic Clearance” value is 62.05 µL/min/mg and the Vmax was 4877 nmol/h/mg.
`CCCCCCCCOC(=O)Nc1nc(=O)n([C@@H]2CS[C@H](COC(=O)OCCCCCCCC)O2)cc1F` [Compound 8, octyl (5-fluoro-1-((2R,5S)-2-((((octyloxy)carbonyl)oxy)methyl)-1,3-oxathiolan-5-yl)-2-oxo-1,2-dihydropyrimidin-4-yl)carbamate]: the half-life at 0.5 mM in data set [2] came to 16.7 min; in data set [3], 33.3 min; in data set [4], 578 min; in data set [5], 151 min.
With `CC(=O)Oc1cc(C)cc(C)c1C(C)(C)CC(=O)Nc1ncnc2c1ncn2C[C@@H](C)OCP(=O)(N[C@@H](C)C(=O)OC(C)C)Oc1ccccc1` (stereo partly drawn) [Compound 26, (2S)-isopropyl (((((R)-1-(6-(3-(2-acetoxy-4,6-dimethylphenyl)-3-methylbutanamido)-9H-purin-9-yl)propan-2-yl)oxy)methyl)(phenoxy)phosphoryl)-L-alaninate], the half-life at 1 mM in data set [6] was 66 min.
On to `CCCCCOC(=O)Nc1nc(=O)n([C@@H]2CS[C@H](COC(=O)OCCCCC)O2)cc1F` [Compound 5, pentyl (5-fluoro-2-oxo-1-((2R,5S)-2-((((pentyloxy)carbonyl)oxy)methyl)-1,3-oxathiolan-5-yl)-1,2-dihydropyrimidin-4-yl)carbamate], for which, in data set [1], the Michaelis constant (Km) is 600 µM, the “Intrinsic Clearance” value worked out at 26.33 µL/min/mg and the Vmax amounted to 948 nmol/h/mg.
With `CCCCOC(=O)Nc1nc(=O)n([C@@H]2CS[C@H](COC(=O)OCCCC)O2)cc1F` [Compound 4, butyl (1-((2R,5S)-2-(((butoxycarbonyl)oxy)methyl)-1,3-oxathiolan-5-yl)-5-fluoro-2-oxo-1,2-dihydropyrimidin-4-yl)carbamate], the half-life at 0.5 mM in data set [2] was determined as 5.8 min; in data set [3], 4.6 min; in data set [4], 59.2 min; in data set [5], 10.3 min.
As to `CCCCCCCCOC(=O)Nc1nc(=O)n([C@@H]2CS[C@H](COC(C)=O)O2)cc1F` [Compound 20, ((2R,5S)-5-(5-fluoro-4-(((octyloxy)carbonyl)amino)-2-oxopyrimidin-1 (2H)-yl)-1,3-oxathiolan-2-yl)methyl acetate], the “half-lives in human liver S9” value in data set [1] is “comparable half-lives”.

For the origin of these results see patent US11498933B2, “Prodrug compositions” (The University of Liverpool, priority 2017, dated 2022).
